The values that follow come from patent US20130123358A1, “Metabolic Benefits to Butyrate as a Chronic Diet Supplement” (priority 2009, published 2013).

Test [1] has as its system HDAC. The test can be described thus: Histone deacetylase assay on muscle nuclear extracts of treated mice. The format is in vivo, mouse. Particulars: butyrate 5% w/w in HFD, 16 weeks on HFD, muscle nuclear extracts. The protocol: Histone deacetylase assay were conducted according to the instruction from the manufacturer (#17-320, Upstate). Briefly, 10 ug of muscle nuclear extract (as an enzyme) was incubated with [3H]-acetyl CoA (#TRK688, Amersham) radio labeled histone H4 peptide (25,000 CPM, as a substrate) at 37° C. for 12 hours by shaking Released [3H]-acetate was measured using a scintillation counter. The nuclear extract was prepared according to a protocol described elsewhere (17). The muscle tissues were collected and snap-frozen in liquid nitrogen within 2 min of cervical dislocation of mice. Tissue samples were stored at −80° C. until further processing. The muscle sample of 200˜300 mg was cut into small pieces on dry ice and homogenized in 1 ml of lysate buffer. After centrifugation at 10,000 rpm for 1 minute at 4° C., the nucleus was pelleted and collected. After being washed, the nucleus pellet was treated with extraction buffer. The supernatant was collected for nuclear protein after centrifugation at 14,000 rpm for 5 minutes at 4° C.
Without wishing to be bound by this theory, one activity of butyrate could be related to inhibition of HDAC. Sodium butyrate inhibits the class I and class II histone deacetylases (HDACs). To test this possibility, HDAC activity was examined in the skeletal muscle of mice at 16 weeks on HFD (FIG. 7G). The assay was conducted with the nuclear extracts of muscle samples. […]

Test [2] has as its system obese C57BL/6J mice on HFD. The test can be described thus: Treatment of obese mice (16 weeks HFD) with butyrate for 5 weeks. It is filed as in vivo, mouse. The procedure:
In the above examples, butyrate was administrated together with HFD during the induction of obesity. To test butyrate in the treatment of obesity and insulin resistance, butyrate was administered to obese mice that had been on HFD for 16 weeks. Obesity was induced in C57BL/6J mice fed on HFD for 16 weeks (21 weeks in age). The obese mice were then treated with butyrate through food supplement for 5 weeks. […] In the control group, the body weight was increased by 15.8% (from 35.9 g to 41.6 g) during the same time period. Values are the means±SE (N=8 in each group). * P<0.05.
Fat content was determined in the body using NMR at the end of 5 week treatment with butyrate. Consistent with the change in body weight, the fat content was reduced by 10% in the butyrate group (FIG. 9B). At the end of 5 weeks, ITT was performed after 4 hours fast and HOMA IR was measured as described above. […] Values are the means±SE (N=8 in each group). * P<0.05.

Test [3] has as its system C57BL/6J mice on high fat diet. Nature of the test: Hyperinsulinemic-euglycemic clamp. It is filed as in vivo, mouse. Particulars: 5% butyrate in HFD 4 weeks. The protocol: Hyperinsulinemic-euglycemic clamps were performed at the Penn State Mouse Metabolic Phenotyping Center. The clamps were conducted in C57BL/6 mice at 12 weeks of age after 4 weeks on HFD with or without butyrate supplement. Following overnight fast (˜15 hour), a 2-hour hyperinsulinemic-euglycemic clamp was conducted in awake mice with a primed (150 mU/kg body weight) and continuous infusion of human regular insulin (Humulin; Eli Lilly, Indianapolis, Ind.) at a rate of 2.5 mU/kg/min to raise plasma insulin within a physiological range (Kim et al., 2004). Blood samples (20 μl) were collected at 20 min intervals for the immediate measurement of plasma glucose concentration, and 20% glucose was infused at variable rates to maintain glucose at basal concentrations. Basal and insulin-stimulated whole body glucose turnover were estimated with a continuous infusion of [3-^3H]glucose (PerkinElmer, Boston, Mass.) for 2 hours prior to the clamps (0.05 μCi/min) and throughout the clamps (0.1 μCi/min), respectively. To estimate insulin-stimulated glucose uptake in individual tissues, 2-deoxy-D-[1-^14C]glucose (2-[^14C]DG) was administered as a bolus (10 μCi) at 75 min after the start of clamps. Blood samples were taken before, during, and at the end of clamps for the measurement of plasma [^3H]glucose, ^3H2O, 2-[^14C]DG concentrations, and/or insulin concentrations. At the end of the clamps, mice were euthanized, and tissues were taken for biochemical and molecular analysis.
Glucose concentrations during clamps were analyzed using […] plasma by a glucose oxidase method on a Beckman Glucose Analyzer 2 (Beckman, Fullerton, Calif.). Plasma insulin concentrations were measured by ELISA using kits from Alpco Diagnostics (Salem, N.H.). Plasma concentrations of [3-^3H]glucose, 2-[^14C]DG, and ^3H2O were determined following deproteinization of plasma samples as previously described. The radioactivity of ^3H in tissue glycogen was determined by digesting tissue samples in KOH and precipitating glycogen with ethanol. For the determination of tissue 2-[^14C]DG-6-P content, tissue samples were homogenized, and the supernatants were subjected to an ion-exchange column to separate 2-[^14C]DG-6-P from 2-[^14C]DG. Rates of basal hepatic glucose production (HGP) and insulin-stimulated whole body glucose turnover were determined as the ratio of the [^3H]glucose infusion rate to the specific activity of plasma glucose at the end of the basal period and during the final 30 min of clamp, respectively (Kim et al., 2004). Insulin-stimulated rate of HGP during clamp was determined by subtracting the glucose infusion rate from whole body glucose turnover. Insulin-stimulated glucose uptake in individual tissues was assessed by determining the tissue content of 2-[^14C]DG-6-P and plasma 2-[^14C]DG profile.
Hyperinsulinemic-euglycemic clamps were performed at the Penn State Mouse Metabolic Phenotyping Center. The clamps were conducted in C57BL/6J mice at 12 weeks of age after 4 weeks on HFD with or without a 5% butyrate supplement. Following overnight fast (˜15 hour), a 2-hour hyperinsulinemic-euglycemic clamp was conducted in awake mice with a primed (150 mU/kg body weight) and continuous infusion of human regular insulin (Humulin; Eli Lilly, Indianapolis, Ind.) at a rate of 2.5 mU/kg/min to raise plasma insulin within a physiological range (38). […]

The subject of test [4] is HDAC. Nature of the test: Histone Deacetylase Assay Kit, inhibition by butyrate isoforms. The settings on record: Histone Deacetylase Assay Kit (Upstate), FIG. 8.
Text: Several isoforms of butyrate were purchased (Sigma Aldrich Chemicals, St. Louis, Mo.) and tested for inhibitory activity of HDAC, using a Histone Deacetylase Assay Kit (Upstate Biotechnology, Lake Placid, N.Y.).

As for `CCCC(=O)[O-].[Na+]` [sodium butyrate], in the test with HDAC [1], the “HDAC activity in skeletal muscle, reduction” value amounted to 50%. Further, in test [2] (5-week butyrate treatment), the “HOMA-IR, reduction” value was found to be 50% and the “fasting glucose, reduction” value was 30%. In addition, the “fasting glucose after treatment” value in test [2] (5-week butyrate treatment, from 131) is 98.6 mg/dL. Besides, the “loss of original body weight” value in test [2] (5-week treatment with butyrate in food) amounted to 10.2%. Further, the ITT result in test [2] (end of 5-week butyrate treatment, 4 hours fast) is on record as “improved significantly”. In addition, in test [2] (end of 5-week butyrate treatment, NMR), the “fat content, reduction” value stood at 10%. In addition, the “body weight after treatment” value in test [2] (end of 5-week butyrate treatment, from 37.6 g) is on record as 34.4 g. In addition, in test [3] (clamp), the “insulin sensitivity in the liver (hepatic glucose production)” value is recorded as “also improved”, the “insulin-stimulated glucose uptake in brown adipose tissue” value is listed as “improved” and the “insulin-stimulated glucose uptake in white adipose tissue” value is recorded as “improved”. The “insulin-stimulated glucose uptake in muscle” value in test [3] (clamp, gastrocnemius) is listed as “improved”. For the same compound, the “glucose infusion rate, increase” value in test [3] (last 40 min of clamps) was 40%. For the same compound, the “inhibitory activity of HDAC” value in the test on HDAC [4] was “inhibited HDAC”.
